Measurements published in ChEMBL document CHEMBL1201862, “PubChem BioAssay data set” (2004).
The source made the active and inactive calls. No stated cut-off is given here; in the data, actives have a measured IC50 and inactives only a lower limit.

Tests used:
Assay type in all cases: functional
[1] = target: T1, Sentrin-specific protease 8 (Homo sapiens, UniProt Q96LD8); assay: SENP8 protease inhibitors, SAR follow-up, biochemical, luminescence (AID 504501)
T1 sequence (Q96LD8 whole entry): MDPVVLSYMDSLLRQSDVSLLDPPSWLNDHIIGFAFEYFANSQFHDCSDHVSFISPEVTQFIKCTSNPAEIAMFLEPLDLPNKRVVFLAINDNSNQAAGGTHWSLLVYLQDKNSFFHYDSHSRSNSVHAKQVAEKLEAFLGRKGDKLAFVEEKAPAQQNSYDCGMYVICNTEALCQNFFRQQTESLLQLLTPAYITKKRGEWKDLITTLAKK

[2] = target: T2, Caspase-3 (Homo sapiens, UniProt P42574); assay: SAR Analysis of small molecule inhibitors of Sentrin-specific proteases (SENPs) using a Caspase-3 Selectivity assay. [Related pubchem assays (depositor defined):AID2540, AID2599, AID434973, AID489001]
T2 sequence (P42574 whole entry): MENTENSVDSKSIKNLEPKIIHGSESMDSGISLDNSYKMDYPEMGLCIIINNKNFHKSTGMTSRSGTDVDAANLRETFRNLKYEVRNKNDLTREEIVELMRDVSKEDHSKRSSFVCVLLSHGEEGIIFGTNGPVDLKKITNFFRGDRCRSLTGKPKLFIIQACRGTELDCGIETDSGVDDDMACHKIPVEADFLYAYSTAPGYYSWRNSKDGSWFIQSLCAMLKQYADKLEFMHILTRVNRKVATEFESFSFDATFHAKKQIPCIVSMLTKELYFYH

[3] = target: T3, Sentrin-specific protease 7 (Homo sapiens, UniProt Q9BQF6); assay: SENP7 protease inhibitors, SAR follow-up, biochemical, luminescence (AID 504497)
T3 sequence (Q9BQF6 whole entry): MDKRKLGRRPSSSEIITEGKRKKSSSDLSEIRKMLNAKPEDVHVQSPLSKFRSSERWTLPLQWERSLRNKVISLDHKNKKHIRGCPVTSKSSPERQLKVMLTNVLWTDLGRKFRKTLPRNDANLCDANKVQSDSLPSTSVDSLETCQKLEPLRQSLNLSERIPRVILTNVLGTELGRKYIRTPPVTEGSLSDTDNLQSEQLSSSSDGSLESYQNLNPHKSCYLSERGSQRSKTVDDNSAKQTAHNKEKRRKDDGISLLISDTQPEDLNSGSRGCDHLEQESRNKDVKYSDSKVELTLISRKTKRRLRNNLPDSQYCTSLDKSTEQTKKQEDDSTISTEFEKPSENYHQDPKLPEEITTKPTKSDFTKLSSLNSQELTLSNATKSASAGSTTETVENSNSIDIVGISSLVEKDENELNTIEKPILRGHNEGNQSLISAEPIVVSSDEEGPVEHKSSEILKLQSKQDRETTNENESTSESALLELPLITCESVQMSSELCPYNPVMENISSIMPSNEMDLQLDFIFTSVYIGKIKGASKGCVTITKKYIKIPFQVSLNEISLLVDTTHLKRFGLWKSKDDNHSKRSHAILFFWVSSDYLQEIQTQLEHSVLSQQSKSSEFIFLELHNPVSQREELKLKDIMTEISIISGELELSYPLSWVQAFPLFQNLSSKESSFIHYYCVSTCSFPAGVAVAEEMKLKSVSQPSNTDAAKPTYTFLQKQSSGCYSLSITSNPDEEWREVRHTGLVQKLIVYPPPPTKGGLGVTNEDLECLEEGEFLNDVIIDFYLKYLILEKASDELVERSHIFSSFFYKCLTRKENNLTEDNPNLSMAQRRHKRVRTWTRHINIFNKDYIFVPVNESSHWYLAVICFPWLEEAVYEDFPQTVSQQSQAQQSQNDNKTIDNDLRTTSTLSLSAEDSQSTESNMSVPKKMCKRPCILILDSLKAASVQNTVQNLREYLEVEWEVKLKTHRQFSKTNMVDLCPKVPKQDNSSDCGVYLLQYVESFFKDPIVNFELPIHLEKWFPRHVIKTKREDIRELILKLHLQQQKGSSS

[4] = target: T4, Sentrin-specific protease 6 (Homo sapiens, UniProt Q9GZR1); assay: SAR Analysis of small molecule inhibitors of Sentrin-specific protease 6 (SENP6) using a Luminescent assay. [Related pubchem assays (depositor defined):AID2582, AID2599]
T4 sequence (Q9GZR1 whole entry): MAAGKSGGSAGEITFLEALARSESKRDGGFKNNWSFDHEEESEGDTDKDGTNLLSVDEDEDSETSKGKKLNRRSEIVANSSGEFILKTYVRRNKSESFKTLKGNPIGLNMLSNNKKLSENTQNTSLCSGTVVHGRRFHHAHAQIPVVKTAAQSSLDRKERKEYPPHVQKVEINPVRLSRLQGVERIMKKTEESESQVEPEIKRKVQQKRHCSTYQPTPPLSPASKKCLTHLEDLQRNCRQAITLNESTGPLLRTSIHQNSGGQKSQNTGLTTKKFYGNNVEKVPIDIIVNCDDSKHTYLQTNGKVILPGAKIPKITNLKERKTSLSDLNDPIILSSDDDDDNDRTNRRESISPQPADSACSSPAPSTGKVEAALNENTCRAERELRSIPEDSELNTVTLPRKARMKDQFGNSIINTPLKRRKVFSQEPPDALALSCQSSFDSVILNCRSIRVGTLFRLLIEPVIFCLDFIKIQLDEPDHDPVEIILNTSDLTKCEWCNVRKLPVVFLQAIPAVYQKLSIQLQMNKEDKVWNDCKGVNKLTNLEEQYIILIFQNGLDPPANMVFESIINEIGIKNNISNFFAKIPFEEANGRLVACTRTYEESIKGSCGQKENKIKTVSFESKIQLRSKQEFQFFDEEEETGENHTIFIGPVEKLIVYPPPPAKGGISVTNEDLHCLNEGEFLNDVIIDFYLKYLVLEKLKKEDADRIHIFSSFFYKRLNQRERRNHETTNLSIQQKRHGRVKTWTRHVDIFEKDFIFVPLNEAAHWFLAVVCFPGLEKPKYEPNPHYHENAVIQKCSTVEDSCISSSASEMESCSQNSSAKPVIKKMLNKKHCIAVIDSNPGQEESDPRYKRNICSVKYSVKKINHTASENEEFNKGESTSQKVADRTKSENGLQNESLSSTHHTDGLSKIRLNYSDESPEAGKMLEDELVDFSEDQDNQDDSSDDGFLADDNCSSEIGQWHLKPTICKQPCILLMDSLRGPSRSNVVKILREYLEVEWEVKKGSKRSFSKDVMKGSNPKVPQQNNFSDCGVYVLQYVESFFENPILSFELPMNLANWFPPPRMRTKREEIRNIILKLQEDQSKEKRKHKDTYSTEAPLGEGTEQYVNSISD

Measured: IC50

Clc1cccc(/N=C/c2ccc(OC3CSC3)cc2)c1
inactive: [1] > 99 µM | [2] > 99 µM | [3] > 99 µM | [4] > 99 µM
